Molecules are shown by their SMILES. Values after ≈ are worked out from the molar mass of the structure shown. Some results are limits rather than exact numbers.

The record followed here is PubChem BioAssay AID1996.

For this data set the following is noted: buffer; pH 7.4; 200.0 µM.
With `O=c1ccc(-c2ccccc2)no1`, the solubility (kinetic) (in general, solubility judged after dilution from a stock solution rather than from solid) was above 26 µg/mL.

With `O=C(CNC(=O)c1ccccc1F)N/N=C/c1cccnc1`, the kinetic solubility is above 45 µg/mL.

Molecule `Cc1c(NC(=O)c2ccc3nsnc3c2)cccc1[N+](=O)[O-]` came in with a kinetic solubility of 2.3 µg/mL (≈ 7.32 µM).

The molecule `COc1cc(NC(=S)N2CCOCC2)c(OC)cc1Cl` gave a kinetic solubility above 47.5 µg/mL.

The molecule `O=C(Nc1ccc2c(c1)OCCO2)c1cccc(Cl)c1` had a kinetic solubility of 36.9 µg/mL (≈ 127 µM).

In turn, `CC1CN(Cc2ccccc2)c2nc3c(c(=O)[nH]c(=O)n3C)n2C1` (stereo unspecified) had a kinetic solubility above 48.8 µg/mL.

The molecule `CCCN(CC(=O)Nc1cc(Cl)ccc1Cl)C(=O)/C=C/c1cc(OC)ccc1OC` gave a kinetic solubility of 5.1 µg/mL (≈ 11.3 µM).

`CN(C)S(=O)(=O)c1ccc(NC(=S)NC(=O)C2CCC2)cc1` came in with a kinetic solubility of 12.5 µg/mL (≈ 36.6 µM).

Regarding `Cc1ccnc2nc(C(=O)OCC(=O)c3ccccc3)nn12`, the solubility (kinetic) is above 44.4 µg/mL.

`O=C(CC1OCC2CCCN2C1=O)Nc1ccc([N+](=O)[O-])cc1` (stereo unspecified) displayed a kinetic solubility of 45.5 µg/mL (≈ 142 µM).

In the case of `Cc1ccc(-c2csc3ncnc(N4CCN(C)CC4)c23)cc1C`, the solubility (kinetic) amounted to 45.7 µg/mL (≈ 135 µM).

Regarding `CC(=O)NC(c1ccc(C(C)C)cc1)c1ccc2cccnc2c1O` (stereo unspecified), the solubility (kinetic) was found to be 0.4 µg/mL (≈ 1.2 µM).

As for `O=C(c1cccc([N+](=O)[O-])c1)N1CCc2ccccc21`, the solubility (kinetic) was found to be 2.1 µg/mL (≈ 7.83 µM).

In turn, `CC(C)CC(=O)Nc1ccccc1N1CCN(c2ccccc2)CC1` returned a kinetic solubility of 1.6 µg/mL (≈ 4.74 µM).

As to `CC1=C(C(=O)OCCC(C)C)C(c2ccc3c(c2)OCO3)NC(=O)N1` (stereo unspecified), the kinetic solubility turned out to be 6.2 µg/mL (≈ 17.9 µM). Compared with the last molecule, the solubility kinetic is about 3.9-fold higher.

As to `CN1C(=O)c2cccc3c(S(=O)(=O)Nc4ccccc4F)ccc1c23`, the kinetic solubility worked out at 9.6 µg/mL (≈ 26.9 µM).

`CCCn1c(=O)c2c(nc3n2CCCN3Cc2ccccc2)n(C)c1=O` had a kinetic solubility of 17.6 µg/mL (≈ 49.8 µM).

`CC1(C)c2ccccc2N2CC(=O)N[C@@]21/C=C/C=C/c1ccccc1` had a solubility (kinetic) of 0.9 µg/mL (≈ 2.72 µM). This solubility kinetic lies about 20-fold lower than the previous one.

As for `O=C(O)CN1C(=O)c2ccc(Oc3ccc([N+](=O)[O-])cc3)cc2C1=O`, the kinetic solubility was above 51.3 µg/mL.

For the molecule `COc1cc2c3c(c1)C(C)CC(C)(C)N3C(=O)C2=O` (stereo unspecified), the kinetic solubility was 36.2 µg/mL (≈ 140 µM).

For the molecule `O=C(Cc1ccccc1)NCC(=O)N1CCN(Cc2cccc(Cl)c2)CC1`, the solubility (kinetic) is above 57.9 µg/mL.

`CCOC(=O)/C(C#N)=C/c1cccc(F)c1` registered a solubility (kinetic) of 28.6 µg/mL (≈ 130 µM).

Molecule `N/C(=N\OC(=O)C1CCCCC1)c1ccc(Cl)cc1` registered a solubility (kinetic) of 8.1 µg/mL (≈ 28.9 µM).

In turn, `CC(=O)Nc1ccc(Nc2ccc([N+](=O)[O-])cn2)cc1` yielded a solubility (kinetic) of 15.8 µg/mL (≈ 58 µM).

`COc1ccc(N2CCN(c3cc(C)c4ccccc4n3)CC2)cc1` registered a kinetic solubility below 0.2 µg/mL.

`Cc1ccc(N2C(=O)CC(N3CCSCC3)C2=O)c(C)c1` (stereo unspecified) came in with a solubility (kinetic) above 45.7 µg/mL.

Take `Cc1cccc(NC(=S)NC(=O)Cc2ccccc2)c1C`: the kinetic solubility worked out at 1.1 µg/mL (≈ 3.69 µM).

In turn, `C=CCn1c(SCC(=O)C23CC4CC(CC(C4)C2)C3)nc(O)cc1=O` gave a solubility (kinetic) above 54.1 µg/mL.

With `COc1ccc(NC(=O)C2CCCN(c3nc(C)cc(C)n3)C2)cc1` (stereo unspecified), the kinetic solubility stood at 1.4 µg/mL (≈ 4.11 µM).

In turn, `Cl.Oc1ccc(Nc2ncnc3ccccc23)cc1` had a solubility (kinetic) of 13.7 µg/mL.

Regarding `C=CCn1c(O)c(C2=c3ccccc3=NC2=O)c2ccccc21`, the solubility (kinetic) is below 0.3 µg/mL.

As to `CC[N+](CC)(CC)CC.[Cl-]`, the solubility (kinetic) stood at 20.3 µg/mL.

Regarding `Cc1ccc2nsnc2c1NC(=O)c1ccc([N+](=O)[O-])o1`, the kinetic solubility was above 45.6 µg/mL.

Turning to `COc1cc(CN2CCCCCC2)c([N+](=O)[O-])cc1OC`, the solubility (kinetic) was determined as 34.8 µg/mL (≈ 118 µM).

In the case of `Cc1ccc(S(=O)(=O)N2CCOCC2)cc1NC(=O)CNC(C)c1ccccc1.O=C(O)C(=O)O` (stereo unspecified), the kinetic solubility was 74.1 µg/mL.

Molecule `O=C(CNS(=O)(=O)c1ccc(Cl)cc1)N1CCN(c2ccc(F)cc2)CC1` gave a kinetic solubility of 8.3 µg/mL (≈ 20.2 µM).

Turning to `CC(=O)Nc1ccccc1NS(=O)(=O)c1ccccc1[N+](=O)[O-]`, the kinetic solubility stood at 47.4 µg/mL (≈ 141 µM). This solubility kinetic lies about 5.7-fold higher than the previous one.

The molecule `C#CCSc1nc(=O)c2cccnc2n1-c1ccc(C)cc1` had a solubility (kinetic) above 46.1 µg/mL.

The molecule `Cc1ccc(S(=O)(=O)N2CCCCC2)cc1NC(=O)CN1C(=O)c2ccccc2S1(=O)=O` gave a solubility (kinetic) of 20.7 µg/mL (≈ 43.3 µM).

Consider `CC1(C)NC(=O)N(CC(=O)OCC(=O)c2ccc(Cl)s2)C1=O`, for which the kinetic solubility is above 51.7 µg/mL.

In turn, `O=C(NCC1CCCO1)c1cc2ccccc2o1` (stereo unspecified) showed a kinetic solubility above 36.8 µg/mL.

As to `CCC(C)NC(=O)C1CCC(=O)N1CCc1ccccc1` (stereo unspecified), the solubility (kinetic) was above 43.3 µg/mL.

`O=C(Nc1ccccc1N1CCOCC1)c1ccc([N+](=O)[O-])s1`: the solubility (kinetic) was determined as 4.6 µg/mL (≈ 13.8 µM).

`COC(=O)/C(=N\OCc1ccc(C#N)cc1)c1c(C)nn(C)c1C` registered a solubility (kinetic) above 49 µg/mL.

Molecule `O=C(Nc1ccccc1F)N1CCCC1c1cccnc1` (stereo unspecified) came in with a kinetic solubility of 40.9 µg/mL (≈ 143 µM).

`CCOC(=O)C(CC)Sc1cc(C)nc2ccc(OC)cc12` (stereo unspecified) had a solubility (kinetic) of 34.8 µg/mL (≈ 109 µM).

Molecule `Cc1ccc(CN2CCN(C3CCC3)CC2CCO)cc1` (stereo unspecified) came in with a kinetic solubility of 42.4 µg/mL (≈ 147 µM).

`Cc1ccc2c(c1)C(=O)OC1(O)C3C4C=CC(C4)C3C(=O)N21` (stereo unspecified) registered a kinetic solubility above 44.6 µg/mL.

On to `COc1ccc(/C=C/C(=O)OCC(=O)NC2CCCCCC2)cc1OC`, for which the solubility (kinetic) stood at 7.1 µg/mL (≈ 19.6 µM).

For `O=C1c2ccccc2S(=O)(=O)N1Cc1ccccc1[N+](=O)[O-]`, the kinetic solubility stood at 0.7 µg/mL (≈ 2.2 µM).

On to `O=Cc1cnc2ccccc2c1-c1ccccc1`, for which the kinetic solubility worked out at 27.8 µg/mL (≈ 119 µM).
